Measurements: patent US4326054A, “Cleomycins and process for producing same” (Zaidan Hojin Biseibutsu Kagaku Kenkyu Kai, priority 1979, dated 1982)

Test system: not listed separately
Assay: Solubility (physical and chemical properties, Tables 4-1 and 4-2)
Conditions: hydrochloride, copper-containing form; also soluble in dimethylformamide, dimethylsulfoxide, and methanol

Structure (SMILES) | Solubility
Cc1c(N)nc(C(CC(N)=O)NCC(N)C(N)=O)nc1C(=O)NC(C(=O)NC(C)C(O)C(C)C(=O)NC(C(=O)NCCc1nc(-c2nc(C(=O)NCCCCNC(=N)N)cs2)cs1)C1(O)CC1)C(OC1OC(CO)C(O)C(O)C1OC1OC(CO)C(O)C(OC(N)=O)C1O)c1cnc[nH]1 (centres unmarked) [Compound No. 2, 4-guanidinobutylaminocleomycin] | Soluble in water

Same assay, conditions: hydrochloride, copper-free form; also soluble in dimethylformamide, dimethylsulfoxide, and methanol

Structure (SMILES) | Solubility
Cc1c(N)nc(C(CC(N)=O)NCC(N)C(N)=O)nc1C(=O)NC(C(=O)NC(C)C(O)C(C)C(=O)NC(C(=O)NCCc1nc(-c2nc(C(=O)NCCCCNC(=N)N)cs2)cs1)C1(O)CC1)C(OC1OC(CO)C(O)C(O)C1OC1OC(CO)C(O)C(OC(N)=O)C1O)c1cnc[nH]1 (centres unmarked) [Compound No. 2, 4-guanidinobutylaminocleomycin] | Soluble in water

Test system: Mycobacterium smegmatis ATCC 607
Assay: Antimicrobial activity, agar plate-cylinder method, bleomycin A2 as standard (1,000 u/mg)
Assay type: cell-based
Conditions: Table 5; copper-free form; relative to bleomycin A2 = 1,000 u/mg
Procedure: Typical examples of the biological activities measured on cleomycins (copper-free form) are illustrated below.
Comparison was made with the relevant antibiotics bleomycins. The relative antimicrobial potency (u/mg) against Mycobacterium smegmatis ATCC 607 was measured by agar plate-cylinder method using bleomycin A2 as a standard (1,000 u/mg).
(Note: The antimicrobial potency was determined by taking bleomycin
A2 as 1,000 μ/mg and using Mycobacterium smegmatis ATCC 607 as a
test bacterium. Herinafter, the same was applied.)

Structure (SMILES) | Antimicrobiral potency
Cc1c(N)nc(C(CC(N)=O)NCC(N)C(N)=O)nc1C(=O)NC(C(=O)NC(C)C(O)C(C)C(=O)NC(C(=O)NCCc1nc(-c2nc(C(=O)NCCCN3CCOCC3)cs2)cs1)C1(O)CC1)C(OC1OC(CO)C(O)C(O)C1OC1OC(CO)C(O)C(OC(N)=O)C1O)c1cnc[nH]1 (centres unmarked) [compound 24, 3-morpholinopropylaminocleomycin] | 800 u/mg
Cc1c(N)nc(C(CC(N)=O)NCC(N)C(N)=O)nc1C(=O)NC(C(=O)NC(C)C(O)C(C)C(=O)NC(C(=O)NCCc1nc(-c2nc(C(=O)NCCCN(C)CCCNCc3ccccc3)cs2)cs1)C1(O)CC1)C(OC1OC(CO)C(O)C(O)C1OC1OC(CO)C(O)C(OC(N)=O)C1O)c1cnc[nH]1 (centres unmarked) [compound 46, 3-[N-methyl-N-(3-benzylaminopropyl)]aminopropylcleomycin] | 7,660 u/mg
COCCCNCCCNC(=O)c1csc(-c2csc(CCNC(=O)C(NC(=O)C(C)C(O)C(C)NC(=O)C(NC(=O)c3nc(C(CC(N)=O)NCC(N)C(N)=O)nc(N)c3C)C(OC3OC(CO)C(O)C(O)C3OC3OC(CO)C(O)C(OC(N)=O)C3O)c3cnc[nH]3)C3(O)CC3)n2)n1 (centres unmarked) [compound 31, 3-(3-methoxypropylamino)propylaminocleomycin] | 1,869 u/mg
Cc1c(N)nc(C(CC(N)=O)NCC(N)C(N)=O)nc1C(=O)NC(C(=O)NC(C)C(O)C(C)C(=O)NC(C(=O)NCCc1nc(-c2nc(C(=O)NCCCNCCCNCc3ccccc3)cs2)cs1)C1(O)CC1)C(OC1OC(CO)C(O)C(O)C1OC1OC(CO)C(O)C(OC(N)=O)C1O)c1cnc[nH]1 (centres unmarked) [compound 45, 3-(3-benzylaminopropylamino)propylaminocleomycin] | 8,400 u/mg
Cc1c(N)nc(C(CC(N)=O)NCC(N)C(N)=O)nc1C(=O)NC(C(=O)NC(C)C(O)C(C)C(=O)NC(C(=O)NCCc1nc(-c2nc(C(=O)NCCCNCCCCCCO)cs2)cs1)C1(O)CC1)C(OC1OC(CO)C(O)C(O)C1OC1OC(CO)C(O)C(OC(N)=O)C1O)c1cnc[nH]1 (centres unmarked) [compound 42, 3-(6-hydroxyhexylamino)propylaminocleomycin] | 4,806 u/mg
Cc1c(N)nc(C(CC(N)=O)NCC(N)C(N)=O)nc1C(=O)NC(C(=O)NC(C)C(O)C(C)C(=O)NC(C(=O)NCCc1nc(-c2nc(C(=O)NCCCCNC(=N)N)cs2)cs1)C1(O)CC1)C(OC1OC(CO)C(O)C(O)C1OC1OC(CO)C(O)C(OC(N)=O)C1O)c1cnc[nH]1 (centres unmarked) [Compound No. 2, 4-guanidinobutylaminocleomycin] | 3,262 u/mg
Cc1c(N)nc(C(CC(N)=O)NCC(N)C(N)=O)nc1C(=O)NC(C(=O)NC(C)C(O)C(C)C(=O)NC(C(=O)NCCc1nc(-c2nc(C(=O)NCCCNCCc3ccccn3)cs2)cs1)C1(O)CC1)C(OC1OC(CO)C(O)C(O)C1OC1OC(CO)C(O)C(OC(N)=O)C1O)c1cnc[nH]1 (centres unmarked) [compound 41, 3-[2-(2-pyridyl)ethylamino]propylaminocleomycin] | 6,068 u/mg
Cc1c(N)nc(C(CC(N)=O)NCC(N)C(N)=O)nc1C(=O)NC(C(=O)NC(C)C(O)C(C)C(=O)NC(C(=O)NCCc1nc(-c2nc(C(=O)NCCCN)cs2)cs1)C1(O)CC1)C(OC1OC(CO)C(O)C(O)C1OC1OC(CO)C(O)C(OC(N)=O)C1O)c1cnc[nH]1 (centres unmarked) [compound 4, 3-aminopropylaminocleomycin] | 2,150 u/mg
Cc1c(N)nc(C(CC(N)=O)NCC(N)C(N)=O)nc1C(=O)NC(C(=O)NC(C)C(O)C(C)C(=O)NC(C(=O)NCCc1nc(-c2nc(C(=O)NCCCNCCCCN)cs2)cs1)C1(O)CC1)C(OC1OC(CO)C(O)C(O)C1OC1OC(CO)C(O)C(OC(N)=O)C1O)c1cnc[nH]1 (centres unmarked) [compound 6, 3-(4-aminobutylamino)propylaminocleomycin] | 3,575 u/mg
Cc1c(N)nc(C(CC(N)=O)NCC(N)C(N)=O)nc1C(=O)NC(C(=O)NC(C)C(O)C(C)C(=O)NC(C(=O)NCCc1nc(-c2nc(C(=O)NCCNCC(C)O)cs2)cs1)C1(O)CC1)C(OC1OC(CO)C(O)C(O)C1OC1OC(CO)C(O)C(OC(N)=O)C1O)c1cnc[nH]1 (centres unmarked) [compound 12, 2-(2-hydroxypropylamino)ethylaminocleomycin] | 2,280 u/mg
Cc1c(N)nc(C(CC(N)=O)NCC(N)C(N)=O)nc1C(=O)NC(C(=O)NC(C)C(O)C(C)C(=O)NC(C(=O)NCCc1nc(-c2nc(C(=O)NCCc3cnc[nH]3)cs2)cs1)C1(O)CC1)C(OC1OC(CO)C(O)C(O)C1OC1OC(CO)C(O)C(OC(N)=O)C1O)c1cnc[nH]1 (centres unmarked) [compound 40, 2-(4-imidazolyl)ethylaminocleomycin] | 1,147 u/mg
Cc1c(N)nc(C(CC(N)=O)NCC(N)C(N)=O)nc1C(=O)NC(C(=O)NC(C)C(O)C(C)C(=O)NC(C(=O)NCCc1nc(-c2nc(C(=O)NCCCNC(C)CCN)cs2)cs1)C1(O)CC1)C(OC1OC(CO)C(O)C(O)C1OC1OC(CO)C(O)C(OC(N)=O)C1O)c1cnc[nH]1 (centres unmarked) [compound 21, 3-(3-amino-1-methylpropylamino)propylaminocleomycin] | 2,620 u/mg
Cc1c(N)nc(C(CC(N)=O)NCC(N)C(N)=O)nc1C(=O)NC(C(=O)NC(C)C(O)C(C)C(=O)NC(C(=O)NCCc1nc(-c2nc(C(=O)NCCCNCCCN)cs2)cs1)C1(O)CC1)C(OC1OC(CO)C(O)C(O)C1OC1OC(CO)C(O)C(OC(N)=O)C1O)c1cnc[nH]1 (centres unmarked) [compound 43, 3-(3-aminopropylamino)propylaminocleomycin] | 2,790 u/mg
Cc1c(N)nc(C(CC(N)=O)NCC(N)C(N)=O)nc1C(=O)NC(C(=O)NC(C)C(O)C(C)C(=O)NC(C(=O)NCCc1nc(-c2nc(C(=O)NCCCNCCCN3CCOCC3)cs2)cs1)C1(O)CC1)C(OC1OC(CO)C(O)C(O)C1OC1OC(CO)C(O)C(OC(N)=O)C1O)c1cnc[nH]1 (centres unmarked) [compound 28, 3-(3-morpholinopropylamino)propylaminocleomycin] | 1,715 u/mg
Cc1c(N)nc(C(CC(N)=O)NCC(N)C(N)=O)nc1C(=O)NC(C(=O)NC(C)C(O)C(C)C(=O)NC(C(=O)NCCc1nc(-c2nc(C(=O)NCCCCN)cs2)cs1)C1(O)CC1)C(OC1OC(CO)C(O)C(O)C1OC1OC(CO)C(O)C(OC(N)=O)C1O)c1cnc[nH]1 (centres unmarked) [compound 5, 4-aminobutylaminocleomycin] | 1,935 u/mg
Cc1c(N)nc(C(CC(N)=O)NCC(N)C(N)=O)nc1C(=O)NC(C(=O)NC(C)C(O)C(C)C(=O)NC(C(=O)NCCc1nc(-c2nc(C(=O)NCCCNCCCN(C)C)cs2)cs1)C1(O)CC1)C(OC1OC(CO)C(O)C(O)C1OC1OC(CO)C(O)C(OC(N)=O)C1O)c1cnc[nH]1 (centres unmarked) [compound 19, 3-[3-(N,N-dimethylamino)propyl]propylaminocleomycin] | 2,004 u/mg
Cc1c(N)nc(C(CC(N)=O)NCC(N)C(N)=O)nc1C(=O)NC(C(=O)NC(C)C(O)C(C)C(=O)NC(C(=O)NCCc1nc(-c2nc(C(=O)NCCCNCCCN3CCCC3)cs2)cs1)C1(O)CC1)C(OC1OC(CO)C(O)C(O)C1OC1OC(CO)C(O)C(OC(N)=O)C1O)c1cnc[nH]1 (centres unmarked) [compound 26, 3-[3-(1-pyrrolidinyl)propylamino]propylaminocleomycin] | 3,590 u/mg
Cc1c(N)nc(C(CC(N)=O)NCC(N)C(N)=O)nc1C(=O)NC(C(=O)NC(C)C(O)C(C)C(=O)NC(C(=O)NCCc1nc(-c2nc(C(=O)NCCCNCc3ccccc3)cs2)cs1)C1(O)CC1)C(OC1OC(CO)C(O)C(O)C1OC1OC(CO)C(O)C(OC(N)=O)C1O)c1cnc[nH]1 (centres unmarked) [compound 32, 3-benzylaminopropylaminocleomycin] | 6.977 u/mg
Cc1c(N)nc(C(CC(N)=O)NCC(N)C(N)=O)nc1C(=O)NC(C(=O)NC(C)C(O)C(C)C(=O)NC(C(=O)NCCc1nc(-c2nc(C(=O)NCCCN3CCNCC3)cs2)cs1)C1(O)CC1)C(OC1OC(CO)C(O)C(O)C1OC1OC(CO)C(O)C(OC(N)=O)C1O)c1cnc[nH]1 (centres unmarked) [compound 13, 3-(1-piperazinyl)propylaminocleomycin] | 980 u/mg
Cc1c(N)nc(C(CC(N)=O)NCC(N)C(N)=O)nc1C(=O)NC(C(=O)NC(C)C(O)C(C)C(=O)NC(C(=O)NCCc1nc(-c2nc(C(=O)NCCN)cs2)cs1)C1(O)CC1)C(OC1OC(CO)C(O)C(O)C1OC1OC(CO)C(O)C(OC(N)=O)C1O)c1cnc[nH]1 (centres unmarked) [Compound No. 3, 2-aminoethylaminocleomycin] | 2,760 u/mg
Cc1c(N)nc(C(CC(N)=O)NCC(N)C(N)=O)nc1C(=O)NC(C(=O)NC(C)C(O)C(C)C(=O)NC(C(=O)NCCc1nc(-c2nc(C(=O)NCCCNCCCNC(C)c3ccccc3)cs2)cs1)C1(O)CC1)C(OC1OC(CO)C(O)C(O)C1OC1OC(CO)C(O)C(OC(N)=O)C1O)c1cnc[nH]1 (centres unmarked) [compound 14, 3-[3-(1-phenylethylamino)propylamino]propylaminocleomycin] | 11,420 u/mg
Cc1c(N)nc(C(CC(N)=O)NCC(N)C(N)=O)nc1C(=O)NC(C(=O)NC(C)C(O)C(C)C(=O)NC(C(=O)NCCc1nc(-c2nc(C(=O)NCCCNCCCCCCN)cs2)cs1)C1(O)CC1)C(OC1OC(CO)C(O)C(O)C1OC1OC(CO)C(O)C(OC(N)=O)C1O)c1cnc[nH]1 (centres unmarked) [compound 44, 3-(6-aminohexylamino)propylaminocleomycin] | 3,520 u/mg
Cc1c(N)nc(C(CC(N)=O)NCC(N)C(N)=O)nc1C(=O)NC(C(=O)NC(C)C(O)C(C)C(=O)NC(C(=O)NCCc1nc(-c2nc(C(=O)NCCCNCCCNC3CCCCC3)cs2)cs1)C1(O)CC1)C(OC1OC(CO)C(O)C(O)C1OC1OC(CO)C(O)C(OC(N)=O)C1O)c1cnc[nH]1 (centres unmarked) [compound 37, 3-(3-cyclohexylaminopropylamino)propylaminocleomycin] | 14,784 u/mg
Cc1c(N)nc(C(CC(N)=O)NCC(N)C(N)=O)nc1C(=O)NC(C(=O)NC(C)C(O)C(C)C(=O)NC(C(=O)NCCc1nc(-c2nc(C(=O)NCCC[N+](C)(C)C)cs2)cs1)C1(O)CC1)C(OC1OC(CO)C(O)C(O)C1OC1OC(CO)C(O)C(OC(N)=O)C1O)c1cnc[nH]1 (centres unmarked) [compound 18, 3-(N,N,N-trimethylamino)propylaminocleomycin] | 878 u/mg
